Measured values published in patent publication US9920033B2, “Crystalline form of a substituted quinoline compound and pharmaceutical compositions thereof” (Sunshine Lake Pharma Co., Ltd., priority 2015, dated 2018).
Where two headings read alike, the source gives them in different places.

Assays:
[1] = Stability test (impurity contents by HPLC); format: physicochemical; details: for The impurity contents: HPLC; for Increase of the impurity contents: illuminating the samples for 10 days
Method: A sample of crystalline form A of compound (I) (100˜200 mg) was placed on a watching glass in the form of a thin layer (thickness ≤5 mm). The samples were exposed to the following conditions: high temperature (60±2° C.) for 10 days; high humidity (25±2° C., 90%±5% relative humidity) for 10 days; illumination condition (visible light 4500 lx±500 lx with ultraviolet light not lower than 0.7 W·h/m^2, 25±2° C., 60%±5% relative humidity) for 10 days; and room temperature (30±2° C., 65%±5% relative humidity) for 10 days, respectively. The impurity contents in the samples were determined at different time points (0, 5 and 10 days) by high performance liquid chromatography (HPLC), and the absorption peaks were normalized relative to the highest peak (corresponds to compound I) which is set to 100%.

[2] = Hygroscopicity test; format: physicochemical; details: p-toluenesulfonate; for Hygroscopicity (conclusion in words): from Table 6; for Hygroscopic capacity: 25±1° C.
Method: A glass weighing bottle equipped with a stopper was tarred and the weight was recorded as m1. Compound (I) in crystalline form A or amorphous form (about 1.0 g) was placed in the tared weighing bottle and capped with the stopper. The total weight was then recorded as m2. […] The weighing bottle capped with its stopper was weighed on day 5 and day 10 and the weight was recorded as m3.

[3] = Pharmacokinetics test in beagle dogs; format: in vivo; details: for AUC(0-inf) / Cmax / Tmax / half-life / AUC(0-t): dog, plasma, po, capsule by gavage; for AUC(0-t): read-out: AUC0-24 h
Method: The pharmacokinetic properties of amorphous Compound (I) or the crystalline form A of Compound (I) disclosed herein are assessed in beagle dogs. The LC/MS/MS system used in the analysis consists of an Agilent 1200 Series vacuum degasser, binary pump, well-plate autosampler, thermostatted column compartment, the Agilent G6430 Triple Quadrupole Mass Spectrometer with an electrosprayionization (ESI) source. Quantitative analysis was carried out using MRM mode. The parameters for MRM transitions are in the Table A.
An Agilent XDB-C18, 2.1×30 mm, 3.5 μM column was used for the analysis. 5 μL of the samples were injected. Analysis condition: The mobile phase was 0.1% formic acid in water (A) and 0.1% formic acid in methanol (B). The flow rate was 0.4 mL/min. And the gradient of Mobile phase was in the Table B.
Alternatively, an Agilent 6330 series LC/MS/MS spectrometer equipped with G1312A binary pumps, a G1367A autosampler and a G1314C UV detector were used in the analysis. An ESI source was used on the LC/MS/MS spectrometer. The analysis was done in positive ion mode as appropriate and the MRM transition for each analyte was optimized using standard solution. A Capcell MP-C18 100×4.6 mm I.D., […] column (Phenomenex, Torrance, Calif., USA) was used during the analysis. The mobile phase was 5 mM ammonia acetate, 0.1% MeOH in water (A): 5 mM ammonia acetate, 0.1% MeOH in acetonitrile (B) (70/30, v/v). The flow rate was 0.6 mL/min. Column was maintained at ambient temperature. 20 μL of the samples were injected.
[…] The blood samples (0.3 mL) were drawn at 0.25, 0.5, 1.0, 2.0, 3.0, 4.0, 6.0, 8.0, 12 and 24 hour time points or 0.083, 0.25, 0.5, 1.0, 2.0, 4.0, 6.0, 8.0 and 24 hour time points and centrifuged at 3,000 or 4000 rpm for 2 to 10 min. The plasma solutions were collected, and analyzed by LC/MS/MS as described above. The pharmacokinetic parameters were calculated according to non-compartment model using WinNonlin procedure.

[4] = high humidity (25±2° C., 90%±5% relative humidity), 0 day, p-toluenesulfonate
[5] = high humidity (25±2° C., 90%±5% relative humidity), 5 days, p-toluenesulfonate
[6] = high humidity (25±2° C., 90%±5% relative humidity), 10 days, p-toluenesulfonate
[7] = high temperature (60±2° C.), 0 day, p-toluenesulfonate
[8] = high temperature (60±2° C.), 5 days, p-toluenesulfonate
[9] = high temperature (60±2° C.), 10 days, p-toluenesulfonate
[10] = illuminating condition (visible light 4500 lx±500 lx with UV, 25±2° C., 60%±5% RH), 0 day, p-toluenesulfonate
[11] = illuminating condition (visible light 4500 lx±500 lx with UV, 25±2° C., 60%±5% RH), 5 days, p-toluenesulfonate
[12] = illuminating condition (visible light 4500 lx±500 lx with UV, 25±2° C., 60%±5% RH), 10 days, p-toluenesulfonate
[13] = room temperature (30±2° C., 65%±5% relative humidity), 0 day, p-toluenesulfonate
[14] = dose 9.7 mg/kg, grain size D90 32 μm
[15] = dose 10 mg/kg, grain size D90 22 μm

The impurity contents [1, 4]	The impurity contents [1, 5]	The impurity contents [1, 6]	The impurity contents [1, 7]	The impurity contents [1, 8]	The impurity contents [1, 9]	The impurity contents [1, 10]	The impurity contents [1, 11]	The impurity contents [1, 12]	The impurity contents [1, 13]	Hygroscopic capacity ([2]; standing time 5 d)	Hygroscopic capacity ([2]; standing time 10 d)	also measured	SMILES
0.14%	0.11%	0.07%	0.14%	0.13%	0.10%	0.14%	0.36%	0.56%	0.14%	7.74%	8.48%	Increase of the impurity contents ([1]; listed as amorphous Compound (I), p-toluenesulfonate): 0.42%; The impurity contents ([1]; room temperature (30±2° C., 65%±5% relative humidity), 5 days): 0.07%; The impurity contents ([1]; room temperature (30±2° C., 65%±5% relative humidity), 10 days): 0.07%; Hygroscopicity (conclusion in words) ([2]; listed as amorphous Compound (I)): hygroscopic; AUC(0-inf) [3, 14]: 55.3 µg·h/mL; Cmax [3, 14]: 2640 ng/mL; Tmax [3, 14]: 3.33 h; half-life [3, 14]: 903 min; AUC(0-t) [3, 14]: 37300 ng·h/mL	Cc1c(C(=O)Nc2ccc(Oc3ccnc4cc(OCC(C)(C)O)ccc34)c(F)c2)c(=O)n(-c2ccccc2)n1C.Cc1ccc(S(=O)(=O)O)cc1 [Amorphous, N-(3-fluoro-4-((7-(2-hydroxy-2-methylpropoxy)quinolin-4-yl)oxy)phenyl)-1,5-dimethyl-3-oxo-2-phenyl-2,3-dihydro-1H-pyrazole-4-carboxamide p-toluenesulfonate]
0.35%	0.37%	0.39%	0.35%	0.37%	0.37%	0.35%	0.38%	0.48%	0.35%	0.03%	0.12%	Increase of the impurity contents ([1]; listed as crystalline form A of Compound (I), p-toluenesulfonate): 0.13%; Hygroscopicity (conclusion in words) ([2]; listed as crystalline form A of compound (I)): not hygroscopic; Exposure and bioavailability in vivo (conclusion in words) ([3]; Cmax, AUC0-24h and AUC0-∞ compared with amorphous Compound (I)): good exposure and bioavailability; AUC(0-inf) [3, 15]: 180 µg·h/mL; Cmax [3, 15]: 6190 ng/mL; Tmax [3, 15]: 4 h; half-life [3, 15]: 1500 min; AUC(0-t) [3, 15]: 131000 ng·h/mL	Cc1c(C(=O)Nc2ccc(Oc3ccnc4cc(OCC(C)(C)O)ccc34)c(F)c2)c(=O)n(-c2ccccc2)n1C.Cc1ccc(S(=O)(=O)O)cc1 [Form A, N-(3-fluoro-4-((7-(2-hydroxy-2-methylpropoxy)quinolin-4-yl)oxy)phenyl)-1,5-dimethyl-3-oxo-2-phenyl-2,3-dihydro-1H-pyrazole-4-carboxamide p-toluenesulfonate]
